Source: the NIST ThermoML archive (doi:10.1021/je800110r)

Conditions: 283.15 K, Liquid, Vibrating tube method

CCCCCCCCCC [decane]
Conditions | mass density [kg/m3]
11428 kPa | 745.5
11443 kPa | 745.5
11462 kPa | 745.5
11483 kPa | 745.5
11498 kPa | 745.5
11518 kPa | 745.4
11530 kPa | 745.6
11543 kPa | 745.5
11625 kPa | 745.7
11647 kPa | 745.7
11663 kPa | 745.7
11681 kPa | 745.6
11774 kPa | 745.8
11790 kPa | 745.8
11806 kPa | 745.8
11824 kPa | 745.8
11838 kPa | 745.7
11856 kPa | 745.8
11876 kPa | 745.9
11889 kPa | 745.8
11904 kPa | 745.8
11924 kPa | 745.9
11943 kPa | 745.8
11954 kPa | 745.8
11969 kPa | 745.9
11982 kPa | 746
11997 kPa | 745.9
12010 kPa | 746
12024 kPa | 745.9
12038 kPa | 746
12052 kPa | 745.9
12068 kPa | 745.9
12080 kPa | 746
12094 kPa | 745.9
12108 kPa | 746
12130 kPa | 746
12149 kPa | 746
12165 kPa | 745.9
12180 kPa | 746.1
12197 kPa | 746
12211 kPa | 746
12226 kPa | 746
12241 kPa | 745.9
12262 kPa | 746.1
12280 kPa | 746.1
12300 kPa | 746
12319 kPa | 746.1
12339 kPa | 746.1
12356 kPa | 746.1
12371 kPa | 746.1
12386 kPa | 746.2
12401 kPa | 746.1
12415 kPa | 746.2
12431 kPa | 746.2
12451 kPa | 746.3
12469 kPa | 746.2
12484 kPa | 746.2
12505 kPa | 746.2
12519 kPa | 746.2
12535 kPa | 746.3
12550 kPa | 746.3
12571 kPa | 746.3
12588 kPa | 746.3
12602 kPa | 746.3
12618 kPa | 746.3
12633 kPa | 746.3
12649 kPa | 746.3
12665 kPa | 746.3
12678 kPa | 746.3
12693 kPa | 746.4
12709 kPa | 746.4
12725 kPa | 746.3
12741 kPa | 746.3
12756 kPa | 746.4
12772 kPa | 746.5
12794 kPa | 746.4
12812 kPa | 746.3
12837 kPa | 746.4
12855 kPa | 746.5
12877 kPa | 746.5
12895 kPa | 746.6
12914 kPa | 746.5
12933 kPa | 746.5
12955 kPa | 746.4
12972 kPa | 746.5
12994 kPa | 746.6
13013 kPa | 746.5
13033 kPa | 746.5
13052 kPa | 746.5
13075 kPa | 746.5
13095 kPa | 746.6
13117 kPa | 746.6
13316 kPa | 746.8
13337 kPa | 746.7
13598 kPa | 746.9
13632 kPa | 746.9
13652 kPa | 747
13673 kPa | 747
13697 kPa | 746.9
13715 kPa | 747
13740 kPa | 747
13765 kPa | 747.1
13787 kPa | 747.1
13809 kPa | 747
13831 kPa | 747.1
13856 kPa | 747
13875 kPa | 747.2
13901 kPa | 747.1
13923 kPa | 747.1
13949 kPa | 747.1
13968 kPa | 747.2
13994 kPa | 747.2
14017 kPa | 747.2
14039 kPa | 747.2
14062 kPa | 747.3
14088 kPa | 747.2
14138 kPa | 747.2
14164 kPa | 747.3
14191 kPa | 747.4
14216 kPa | 747.4
14359 kPa | 747.4
14385 kPa | 747.5
14411 kPa | 747.4
14428 kPa | 747.6
14446 kPa | 747.5
14481 kPa | 747.5
14499 kPa | 747.5
14528 kPa | 747.6
14543 kPa | 747.6
14563 kPa | 747.5
14578 kPa | 747.6
14599 kPa | 747.6
14614 kPa | 747.6
14632 kPa | 747.6
14650 kPa | 747.6
14668 kPa | 747.7
14686 kPa | 747.7
14704 kPa | 747.6
14722 kPa | 747.7
14741 kPa | 747.7
14759 kPa | 747.7
14777 kPa | 747.6
14795 kPa | 747.6
14826 kPa | 747.7
14844 kPa | 747.7
14862 kPa | 747.7
14881 kPa | 747.8
14903 kPa | 747.7
14925 kPa | 747.8
14941 kPa | 747.8
14963 kPa | 747.8
14979 kPa | 747.8
14998 kPa | 747.9
15017 kPa | 748
15036 kPa | 747.9
15055 kPa | 747.9
15077 kPa | 747.9
15100 kPa | 747.8
15119 kPa | 747.9
15139 kPa | 747.9
15239 kPa | 748
15312 kPa | 748
15351 kPa | 748.1
15368 kPa | 748.1
15391 kPa | 748.2
15415 kPa | 748
15442 kPa | 748.1
15466 kPa | 748.3
15486 kPa | 748.1
15507 kPa | 748.2
15524 kPa | 748.3
15545 kPa | 748.3
15569 kPa | 748.3
15590 kPa | 748.2
15617 kPa | 748.3
15645 kPa | 748.4
15669 kPa | 748.2
15693 kPa | 748.3
15718 kPa | 748.3
15743 kPa | 748.2
15771 kPa | 748.4
15799 kPa | 748.3
15821 kPa | 748.3
15850 kPa | 748.3
15874 kPa | 748.4
15899 kPa | 748.4
15920 kPa | 748.6
15949 kPa | 748.5
15981 kPa | 748.6
16007 kPa | 748.4
16028 kPa | 748.6
16083 kPa | 748.6
16109 kPa | 748.6
16135 kPa | 748.5
16168 kPa | 748.6
16191 kPa | 748.6
16221 kPa | 748.6
16257 kPa | 748.7
16288 kPa | 748.7
16310 kPa | 748.7
16344 kPa | 748.8
16378 kPa | 748.7
16405 kPa | 748.8
16433 kPa | 748.8
16467 kPa | 748.7
16494 kPa | 748.9
16528 kPa | 748.8
16560 kPa | 748.9
16587 kPa | 749
16619 kPa | 748.8
16643 kPa | 749
16667 kPa | 749
16703 kPa | 748.8
16739 kPa | 749
16759 kPa | 748.8
16796 kPa | 749
16824 kPa | 749
16852 kPa | 749.1
16880 kPa | 749
16905 kPa | 748.9
16938 kPa | 749.2
16967 kPa | 749.2
16993 kPa | 749.1
17030 kPa | 749.2
17063 kPa | 749.1
17088 kPa | 749.1
17127 kPa | 749.2
17153 kPa | 749.2
17192 kPa | 749.2
17213 kPa | 749.3
17240 kPa | 749.3
17267 kPa | 749.4
17293 kPa | 749.4
17316 kPa | 749.4
17343 kPa | 749.4
17366 kPa | 749.5
17390 kPa | 749.4
17422 kPa | 749.4
17451 kPa | 749.3
17470 kPa | 749.5
17498 kPa | 749.4
17521 kPa | 749.4
17549 kPa | 749.4
17626 kPa | 749.5
17652 kPa | 749.5
17711 kPa | 749.6
17734 kPa | 749.6
17770 kPa | 749.5
17792 kPa | 749.7
17815 kPa | 749.7
17841 kPa | 749.8
17864 kPa | 749.7
17898 kPa | 749.9
17925 kPa | 749.6
17948 kPa | 749.7
17982 kPa | 749.9
18017 kPa | 749.8
18044 kPa | 749.8
18071 kPa | 749.9
18099 kPa | 749.9
18130 kPa | 749.9
18154 kPa | 749.9
18178 kPa | 749.9
18210 kPa | 750
18246 kPa | 750
18305 kPa | 750
18383 kPa | 750
18574 kPa | 750.2
18652 kPa | 750.2
18691 kPa | 750.2
18719 kPa | 750.1
18746 kPa | 750.2
18770 kPa | 750.3
18793 kPa | 750.3
